≈ marks a conversion by molar mass, not a printed value. Calls of active or inactive are those of the source. The rule behind the calls is not given here.
Experiments:
[1] = system: Enterococcus faecium; assay: Antibacterial activity against vancomycin B-resistant Enterococcus faecium assessed as inhibition of bacterial growth; type: functional
[2] = system: Enterococcus faecium; assay: Antibacterial activity against vancomycin A-resistant Enterococcus faecium assessed as inhibition of bacterial growth; type: functional
[3] = system: Staphylococcus aureus; assay: Antibacterial activity against methicillin-resistant Staphylococcus aureus assessed as inhibition of bacterial growth; type: functional
[4] = system: Acinetobacter baumannii; assay: Antibacterial activity against Acinetobacter baumannii ATCC19606 assessed as inhibition of bacterial growth; type: functional, organism-based
[5] = system: Aspergillus fumigatus; assay: Antifungal activity against Aspergillus fumigatus ATCC46645 assessed as inhibition of […] growth; type: functional, organism-based
[6] = system: Staphylococcus aureus; assay: Antibacterial activity against methicillin-resistant Staphylococcus aureus MB5395 assessed as inhibition of bacterial growth; type: functional

SMILES | MIC95 [1] | MIC95 [2] | MIC95 [3] | Activity [4] | Activity [5] | MIC95 [6]
CCCCC/C=C/C=C/C(=O)NC[C@@H]1NC(=O)CN2C(=O)[C@H](CNC(=O)[C@@H](Cc3ccc(OC)cc3)NC1=O)NC2(C)C | 8 µg/mL (≈ 13.4 µM) | 16 µg/mL (≈ 26.8 µM) | 16 µg/mL (≈ 26.8 µM) | inactive | inactive | 4 µg/mL (≈ 6.7 µM)
CCCCC/C=C/C=C/C(=O)NC[C@@H]1NC(=O)CNC(=O)[C@@H](N)CNC(=O)[C@@H](Cc2ccc(OC)cc2)NC1=O |  |  | 16 µg/mL (≈ 28.7 µM) |  |  | 

— ChEMBL document CHEMBL6127082, “Genome-Led Discovery of the Antibacterial Cyclic Lipopeptide Kutzneridine A and Its Silent Biosynthetic Gene Cluster from Kutzneria Species” (2024)
